Common to all, as to type: cell-based
One test deals with T1, BRAF G469A (Homo sapiens, UniProt P15056, G469A).
T1 construct: Horizon Discovery (HCT-116 BRAF−/− cells); host or cells: HCT-116 BRAF−/− cells, clone 34, lentiviral transduction
Description: BRAF HiBiT degradation assay, C-terminal HiBiT-tagged BRAF G469A overexpressed in HCT-116 BRAF−/− cells (clone 34), Nano-Glo HiBiT Lytic assay. A digest of the protocol: (§1)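 Cells 3,000/well, 24 h at 37 °C; cpds 1 μM–0.01 nM, 11-pt half-log, duplicate, 0.2% DMSO. Readout: HiBiT lytic luminescence, 10 min at RT. Normalized to DMSO-treated tagged cells, with DMSO-treated wild-type HCT-116 as background. DC50 = fitted concentration at Y=50; Obs. Dmax = % degraded at maximal effect.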

A further test concerns the target T2, BRAF G466V (Homo sapiens, UniProt P15056, G466V).
T2 construct: Horizon Discovery (HCT-116 BRAF−/− cells); host or cells: HCT-116 BRAF−/− cells, clone 8, lentiviral transduction
Description: BRAF HiBiT degradation assay, C-terminal HiBiT-tagged BRAF G466V overexpressed in HCT-116 BRAF−/− cells (clone 8), Nano-Glo HiBiT Lytic assay. The gist of the method: as §1
(The HiBiT peptide binds its large partner to form an active luciferase.)

The target in a further test is T3, BRAF D594G (Homo sapiens, UniProt P15056, D594G).
T3 construct: Horizon Discovery (HCT-116 BRAF−/− cells); host or cells: HCT-116 BRAF−/− cells, clone 63, lentiviral transduction
T3 sequence (P15056 whole entry D594G): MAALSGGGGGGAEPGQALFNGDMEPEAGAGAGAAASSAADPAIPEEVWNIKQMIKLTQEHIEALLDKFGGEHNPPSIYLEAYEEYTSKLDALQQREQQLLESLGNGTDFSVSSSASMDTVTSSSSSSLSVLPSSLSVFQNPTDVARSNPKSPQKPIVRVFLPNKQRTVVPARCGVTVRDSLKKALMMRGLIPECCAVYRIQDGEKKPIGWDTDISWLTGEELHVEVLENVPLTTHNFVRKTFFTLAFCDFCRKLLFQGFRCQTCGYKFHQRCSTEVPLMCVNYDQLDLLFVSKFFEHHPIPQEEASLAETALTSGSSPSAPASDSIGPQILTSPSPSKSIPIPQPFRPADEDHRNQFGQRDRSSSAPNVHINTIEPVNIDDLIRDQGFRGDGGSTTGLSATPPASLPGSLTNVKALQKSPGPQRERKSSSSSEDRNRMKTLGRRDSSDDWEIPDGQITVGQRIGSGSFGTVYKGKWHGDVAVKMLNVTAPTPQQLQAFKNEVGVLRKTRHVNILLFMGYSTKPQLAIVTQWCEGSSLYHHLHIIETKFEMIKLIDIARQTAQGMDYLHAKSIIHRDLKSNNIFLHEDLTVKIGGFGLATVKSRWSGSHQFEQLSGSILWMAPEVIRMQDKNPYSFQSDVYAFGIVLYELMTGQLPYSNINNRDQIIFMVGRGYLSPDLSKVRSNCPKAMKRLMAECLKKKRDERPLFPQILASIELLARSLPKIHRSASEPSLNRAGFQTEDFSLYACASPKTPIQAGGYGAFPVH
Nature of the test: BRAF HiBiT degradation assay, C-terminal HiBiT-tagged BRAF D594G overexpressed in HCT-116 BRAF−/− cells (clone 63), Nano-Glo HiBiT Lytic assay. A digest of the protocol: as §1

The next test deals with T4, BRAF V600E (Homo sapiens, UniProt P15056, V600E).
T4 construct: endogenous C-terminal HiBiT fusion tag on BRAF V600E allele; endogenous in cells; host or cells: A375 clone 1F10 (CRISPR-Cas9 knock-in of the HiBiT tag; parental A375 from ATCC)
T4 sequence (P15056 whole entry V600E, the tested form may be a part): as the sequence (P15056 whole entry D594G) above, with G594D, V600E counted along it
Description: BRAF HiBiT degradation assay, C-terminal HiBiT-tagged BRAF V600E A375 cells (clone 1F10), Nano-Glo HiBiT Lytic assay. The following applies: for Dmax: A-375. A digest of the protocol:
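Luminescence read-out: Nano-Glo HiBiT lytic reagent with LgBiT, 10 min at room temperature. Signal normalised to DMSO-treated tagged cells, with wildtype A375 as background. Cells are endogenously tagged BRAF V600E A375 clone 1F10. Compounds were tested from 1 μM to 0.01 nM; Dmax is observed % degraded at maximal effect.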

Setting [1] is: Class 2, BRAF G469A, DC50 at 50%: fitted conc. at Y=50.
Where [2] appears, read: HCT-116, Class 2, BRAF G469A, percentage protein degraded at maximal compound effect relative to DMSO.
The mark [3] stands for this setting: BRAF G466V, DC50 at 50%: fitted conc. at Y=50.
[4] abbreviates: HCT-116, BRAF G466V, percentage protein degraded at maximal compound effect relative to DMSO.
Setting [5] is: BRAF D594G, DC50 at 50%: fitted conc. at Y=50.
[6] abbreviates: HCT-116, BRAF D594G, percentage protein degraded at maximal compound effect relative to DMSO.
Where [7] appears, read: A375 (BRAF V600E), DC50 at 50%: fitted conc. at Y=50.
The mark [8] stands for this setting: A375 (BRAF V600E), percentage protein degraded at maximal compound effect relative to DMSO.
Setting [9] is: BRAF G469A (Class 2), HCT-116 BRAF−/− cells, DC50 at 50% degradation.
Setting [10] is: BRAF G469A (Class 2), HCT-116 BRAF−/− cells, observed Dmax relative to DMSO control.
[11] abbreviates: BRAF G466V (Class 3), HCT-116 BRAF−/− cells, DC50 at 50% degradation.
Setting [12] is: BRAF G466V (Class 3), HCT-116 BRAF−/− cells, observed Dmax relative to DMSO control.
The mark [13] stands for this setting: BRAF D594G (Class 3), HCT-116 BRAF−/− cells, DC50 at 50% degradation.
Where [14] appears, read: BRAF D594G (Class 3), HCT-116 BRAF−/− cells, observed Dmax relative to DMSO control.
Where [15] appears, read: A375 (BRAF V600E, Class 1), DC50 at 50% degradation.
[16] abbreviates: A375 (BRAF V600E, Class 1), observed Dmax, % protein degraded relative to DMSO control.

Some results are limits rather than exact numbers.

This note sets out measurements from patent publication US20260317324A1, “BIFUNCTIONAL COMPOUNDS FOR DEGRADING BRAF VIA UBIQUITIN PROTEOSOME PATHWAY” (Nurix Therapeutics, Inc., priority 2023, published 2026).

By DC50 is commonly meant the concentration giving 50% degradation. Low values mean degradation at low concentration, high ones degradation only at high concentration. The term Dmax denotes the greatest extent of degradation seen. The low end stands for a partial loss of target, the high end for a fuller loss of target.

T2 sequence (P15056 whole entry G466V): as the sequence (P15056 whole entry D594G) above, with G466V, G594D counted along it
T1 sequence (P15056 whole entry G469A): as the sequence (P15056 whole entry D594G) above, with G469A, G594D counted along it

Turning to `CCCS(=O)(=O)Nc1cccc(-c2nc(C(C)(C)C)sc2-c2ccnc(Nc3ccc(N4CCN(CC5CCN(c6ccc([C@@H]7CCC(=O)NC7=O)cc6)CC5)CC4)cc3)n2)c1F` [Compound 58, N-[3-(2-tert-butyl-5-{2-[(4-{4-[(1-{4-[(3S)-2,6-dioxopiperidin-3-yl]phenyl}piperidin-4-yl)methyl]piperazin-1-yl}phenyl)amino]pyrimidin-4-yl}-1,3-thiazol-4-yl)-2-fluorophenyl]propane-1-sulfonamide], the 50% degradation concentration (DC50) was more than 500 nM at BRAF G469A (setting [1]), 50 to 500 nM on BRAF G466V (setting [3]), more than 500 nM at BRAF D594G (setting [5]) and 10 to 50 nM at BRAF V600E (setting [7]). Besides, the Dmax on BRAF G469A (setting [2]) is 30 to 70%; on BRAF G466V (setting [4]), 30 to 70%; on BRAF D594G (setting [6]), 30 to 70%; on BRAF V600E (setting [8]), more than 70%.

In the case of `CCN(C)S(=O)(=O)Nc1cccc(-c2nc(C(C)(C)C)sc2-c2ccnc(Nc3ccc(N4CCN(CC5CCN(c6ccc(C7CCC(=O)NC7=O)cn6)CC5)CC4)cn3)n2)c1F` (racemic) [Compound 126, Rac-(3S)-3-{6-[4-({4-[6-({4-[2-tert-butyl-4-(3-{[ethyl(methyl)sulfamoyl]amino}-2-fluorophenyl)-1,3-thiazol-5-yl]pyrimidin-2-yl}amino)pyridin-3-yl]piperazin-1-yl}methyl)piperidin-1-yl]pyridin-3-yl}piperidine-2,6-dione], the DC50 on BRAF G469A (setting [1]) was 10 to 50 nM; on BRAF G466V (setting [3]), 10 to 50 nM; on BRAF D594G (setting [5]) it was less than 10 nM; on BRAF V600E (setting [7]) it was 10 to 50 nM. Further, the Dmax at BRAF G469A (setting [2]) was 30 to 70%; on BRAF G466V (setting [4]), more than 70%; on BRAF D594G (setting [6]) it was 30 to 70%; on BRAF V600E (setting [8]), more than 70%.

As to `CCCS(=O)(=O)Nc1cc(Cl)cc(-c2cn(-c3ccc(N4CCN(CC5CCN(c6ccc(N7CCC(=O)NC7=O)cc6)CC5)[C@H](C)C4)cc3)nc2-c2ccncc2)c1F` [Compound 277, N-[5-chloro-3-(1-{4-[(3R)-4-({1-[4-(2,4-dioxo-1,3-diazinan-1-yl)phenyl]piperidin-4-yl}methyl)-3-methylpiperazin-1-yl]phenyl}-3-(pyridin-4-yl)-1H-pyrazol-4-yl)-2-fluorophenyl]propane-1-sulfonamide], the DC50 is 10 to 50 nM at BRAF G469A (setting [9]), less than 10 nM at BRAF G466V (setting [11]), 50 to 500 nM at BRAF D594G (setting [13]) and less than 10 nM at BRAF V600E (setting [15]). Also, the greatest degradation seen (Dmax) was 30 to 70% at BRAF G469A (setting [10]), more than 70% on BRAF G466V (setting [12]), 30 to 70% at BRAF D594G (setting [14]) and more than 70% at BRAF V600E (setting [16]).

Take `O=C1CC[C@H](c2ccc(N3CCC(CN4CCN(c5ccc(-n6cc(-c7cc(Cl)cc(NS(=O)(=O)N8CCCC8)c7F)c(-c7ccncc7)n6)cc5)CC4)CC3)cc2)C(=O)N1` [Compound 282, N-{5-chloro-3-[1-(4-{4-[(1-{4-[(3R)-2,6-dioxopiperidin-3-yl]phenyl}piperidin-4-yl)methyl]piperazin-1-yl}phenyl)-3-(pyridin-4-yl)-1H-pyrazol-4-yl]-2-fluorophenyl}pyrrolidine-1-sulfonamide]: the 50% degradation concentration (DC50) at BRAF G469A (setting [9]), at BRAF G466V (setting [11]), on BRAF D594G (setting [13]) and at BRAF V600E (setting [15]) was less than 10 nM in each case. The maximal degradation (Dmax) was 30 to 70% on BRAF G469A (setting [10]), more than 70% on BRAF G466V (setting [12]), 30 to 70% at BRAF D594G (setting [14]) and more than 70% at BRAF V600E (setting [16]).

With `CCCS(=O)(=O)Nc1cccc(-c2cn(-c3ccc(N4CCN(CC5CCN(c6ccc([C@@H]7CCC(=O)NC7=O)cc6)CC5)CC4)nc3)nc2-c2ccncc2)c1F` [Compound 4, N-{3-[1-(6-{4-[(1-{4-[(3S)-2,6-dioxopiperidin-3-yl]phenyl}piperidin-4-yl)methyl]piperazin-1-yl}pyridin-3-yl)-3-(pyridin-4-yl)-1H-pyrazol-4-yl]-2-fluorophenyl}propane-1-sulfonamide], the 50% degradation concentration (DC50) was more than 500 nM at BRAF G469A (setting [1]), 10 to 50 nM at BRAF G466V (setting [3]), more than 500 nM on BRAF D594G (setting [5]) and 10 to 50 nM at BRAF V600E (setting [7]). The maximal degradation (Dmax) is less than 30% at BRAF G469A (setting [2]), 30 to 70% on BRAF G466V (setting [4]), 30 to 70% on BRAF D594G (setting [6]) and more than 70% on BRAF V600E (setting [8]).

For the compound `CCCS(=O)(=O)Nc1cccc(-c2nc(C(C)(C)C)sc2-c2ccnc(Nc3cnn(C4CCN(C(=O)[C@H]5CC[C@H](Oc6ccc(C7CCC(=O)NC7=O)cc6)CC5)CC4)c3)n2)c1F` (mixture of isomers) [Compound 110, N-[3-(2-tert-butyl-5-{2-[(1-{1-[(1r,4r)-4-{4-[(3RS)-2,6-dioxopiperidin-3-yl]phenoxy}cyclohexanecarbonyl]piperidin-4-yl}-1H-pyrazol-4-yl)amino]pyrimidin-4-yl}-1,3-thiazol-4-yl)-2-fluorophenyl]propane-1-sulfonamide], the DC50 is more than 500 nM at BRAF G469A (setting [1]), more than 500 nM on BRAF G466V (setting [3]), more than 500 nM at BRAF D594G (setting [5]) and less than 10 nM on BRAF V600E (setting [7]). Further, the Dmax on BRAF G469A (setting [2]) is less than 30%; at BRAF G466V (setting [4]) it was less than 30%; at BRAF D594G (setting [6]), less than 30%; at BRAF V600E (setting [8]), 30 to 70%.

`CCCS(=O)(=O)Nc1cccc(-c2cn(-c3ccc(N4CCC(CN5CCN(c6ccc(C7CCC(=O)NC7=O)cc6)CC5)CC4)cc3)nc2-c2ccncc2)c1F` (racemic) [Compound 381, Rac-(R)—N-(3-(1-(4-(4-((4-(4-(2,6-dioxopiperidin-3-yl)phenyl)piperazin-1-yl)methyl)piperidin-1-yl)phenyl)-3-(pyridin-4-yl)-1H-pyrazol-4-yl)-2-fluorophenyl)propane-1-sulfonamide]: the DC50 was 10 to 50 nM on BRAF G469A (setting [9]), 10 to 50 nM on BRAF G466V (setting [11]), less than 10 nM on BRAF D594G (setting [13]) and 10 to 50 nM at BRAF V600E (setting [15]). Besides, the Dmax at BRAF G469A (setting [10]) is 30 to 70%; on BRAF G466V (setting [12]), 30 to 70%; on BRAF D594G (setting [14]), 30 to 70%; on BRAF V600E (setting [16]), more than 70%.

In the case of `CCCS(=O)(=O)Nc1cccc(-c2nc(C(C)(C)C)sc2-c2ccnc(Nc3ccc(N4CCN(CC5CCN(c6ccc(C7CCC(=O)NC7=O)cn6)CC5)CC4)c(F)c3)n2)c1F` (racemic) [Compound 45, Rac-N-[3-(2-tert-butyl-5-{2-[(4-{4-[(1-{5-[(3R)-2,6-dioxopiperidin-3-yl]pyridin-2-yl}piperidin-4-yl)methyl]piperazin-1-yl}-3-fluorophenyl)amino]pyrimidin-4-yl}-1,3-thiazol-4-yl)-2-fluorophenyl]propane-1-sulfonamide], the DC50 at BRAF G469A (setting [1]) is more than 500 nM; at BRAF G466V (setting [3]) it was less than 10 nM; at BRAF D594G (setting [5]) it was 10 to 50 nM; on BRAF V600E (setting [7]), 10 to 50 nM. In addition, the Dmax on BRAF G469A (setting [2]) was 30 to 70%; at BRAF G466V (setting [4]) it was more than 70%; at BRAF D594G (setting [6]), 30 to 70%; on BRAF V600E (setting [8]), more than 70%.

Turning to `C[C@@H]1CN(c2ccc(-n3cc(-c4cc(Cl)cc(NS(=O)(=O)N5CC[C@@H](F)C5)c4F)c(-c4ccncc4)n3)nc2)CCN1CC1CCN(c2ccc(C3CCC(=O)NC3=O)cn2)CC1` (mixture of isomers) [Compound 321, (3R)—N-[5-chloro-3-(1-{5-[(3R)-4-[(1-{5-[(3RS)-2,6-dioxopiperidin-3-yl]pyridin-2-yl}piperidin-4-yl)methyl]-3-methylpiperazin-1-yl]pyridin-2-yl}-3-(pyridin-4-yl)-1H-pyrazol-4-yl)-2-fluorophenyl]-3-fluoropyrrolidine-1-sulfonamide], the DC50 at BRAF G469A (setting [9]), at BRAF G466V (setting [11]), on BRAF D594G (setting [13]) and on BRAF V600E (setting [15]) was less than 10 nM in each case. For the same compound, the greatest degradation seen (Dmax) on BRAF G469A (setting [10]), at BRAF G466V (setting [12]), at BRAF D594G (setting [14]) and at BRAF V600E (setting [16]) was more than 70% throughout.
